Experimental data taken from the supplement of paper PMC10307832.

Key:
Experiment in all cases: relative viability (nuclei count vs DMSO), 5 days (fraction); higher = more cells survive
[1] = compound: COc1cc(-c2nn([C@H]3CC[C@H](N4CCN(C(C)=O)CC4)CC3)c3ncnc(N)c23)ccc1NC(=O)c1cc2ccccc2n1C + Nc1ncn([C@H]2C[C@H](O)[C@@H](CO)O2)c(=O)n1 [Decitabine] (partner 2 µM)
Outline: (§1)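 Relative viability divides the nuclei count in treated wells by that in vehicle wells. Lung cancer cell lines were seeded in 1536-well plates, dosed by pin tool the next day, and fixed and stained after 5 days in one step with final 0.05% Triton X-100, 1% formaldehyde and 1 ug/ml Hoechst. Dosing was a single drug or a fixed anchor-drug dose plus five library-drug doses (not always all listed) in √10 steps, and values are medians of duplicate plates imaged at 4×.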

[2] = compound: COc1cc(-c2nn([C@H]3CC[C@H](N4CCN(C(C)=O)CC4)CC3)c3ncnc(N)c23)ccc1NC(=O)c1cc2ccccc2n1C + Cc1cc(Nc2cc(N3CCN(C)CC3)nc(Sc3ccc(NC(=O)C4CC4)cc3)n2)n[nH]1 [Tozasertib] (partner 0.1 µM)
Outline: as §1

[3] = compound: COc1cc(-c2nn([C@H]3CC[C@H](N4CCN(C(C)=O)CC4)CC3)c3ncnc(N)c23)ccc1NC(=O)c1cc2ccccc2n1C + O=C(CCCCCCC(=O)Nc1ccccc1)NO [Vorinostat] (partner 1 µM)
Outline: as §1

[4] = compound: COc1cc(-c2nn([C@H]3CC[C@H](N4CCN(C(C)=O)CC4)CC3)c3ncnc(N)c23)ccc1NC(=O)c1cc2ccccc2n1C + O=C(c1cc(Cc2n[nH]c(=O)c3ccccc23)ccc1F)N1CCN(C(=O)C2CC2)CC1 [Olaparib] (partner 8 µM)
Outline: as §1

Midostaurin + Foretinib = compound: CO[C@@H]1[C@H](N(C)C(=O)c2ccccc2)C[C@H]2O[C@]1(C)n1c3ccccc3c3c4c(c5c6ccccc6n2c5c31)C(=O)NC4 [Midostaurin] + COc1cc2c(Oc3ccc(NC(=O)C4(C(=O)Nc5ccc(F)cc5)CC4)cc3F)ccnc2cc1OCCCN1CCOCC1 [Foretinib] (partner 0.25 µM)
Outline: as §1

Row | Cell Line | relative viability ([1]; first compound 0.0128 µM) | relative viability ([1]; first compound 0.04048 µM) | relative viability ([1]; first compound 0.128 µM) | relative viability ([1]; first compound 1.28 µM) | relative viability ([2]; first compound 0.0128 µM) | relative viability ([2]; first compound 0.04048 µM) | relative viability ([2]; first compound 0.128 µM) | relative viability ([2]; first compound 1.28 µM) | relative viability ([3]; first compound 0.0128 µM) | relative viability ([3]; first compound 0.04048 µM) | relative viability ([3]; first compound 0.128 µM) | relative viability ([3]; first compound 1.28 µM) | relative viability ([4]; first compound 0.0128 µM) | relative viability ([4]; first compound 0.04048 µM) | relative viability ([4]; first compound 0.128 µM) | relative viability ([4]; first compound 1.28 µM) | relative viability (Midostaurin + Foretinib; first compound 0.01 µM) | relative viability (Midostaurin + Foretinib; first compound 0.03162 µM) | relative viability (Midostaurin + Foretinib; first compound 0.1 µM) | relative viability (Midostaurin + Foretinib; first compound 0.3162 µM)
1 | NCI-H1648 | 0.595 | 0.447 | 0.482 | 0.452 | 0.381 | 0.514 | 0.469 | 0.3 | 0.536 | 0.48 | 0.526 | 0.341 | 0.94 | 0.928 | 1.23 | 0.515 | – | – | – | –
2 | SK-MES-1 | 0.384 | 0.368 | 0.454 | 0.355 | 0.906 | 1.01 | 0.827 | 0.936 | 1.17 | 1.14 | 1.08 | 1.13 | 0.79 | 0.873 | 0.672 | 0.587 | 0.927 | 0.925 | 0.963 | 0.781
3 | HCC-366 | 0.379 | 0.344 | 0.351 | 0.306 | 0.114 | 0.0717 | 0.0637 | 0.0555 | 0.432 | 0.361 | 0.346 | 0.451 | 0.394 | 0.328 | 0.361 | 0.252 | 0.932 | 0.957 | 0.81 | 0.75
4 | 201T | 0.929 | 0.919 | 0.809 | 0.615 | 1 | 0.949 | 0.854 | 0.523 | 1.01 | 1.1 | 0.909 | 0.654 | 0.899 | 0.896 | 0.767 | 0.623 | 1.15 | 0.988 | 1.14 | 1.17
5 | HCC-827 | 0.336 | 0.318 | 0.357 | 0.29 | 0.417 | 0.416 | 0.392 | 0.374 | 0.72 | 0.979 | 0.765 | 0.389 | 0.657 | 0.572 | 0.574 | 0.48 | 0.98 | 1.04 | 1.01 | 1.05
6 | NCI-H647 | 0.451 | 0.424 | 0.406 | 0.364 | 0.219 | 0.262 | 0.194 | 0.141 | 0.422 | 0.698 | 0.606 | 0.421 | 0.646 | 0.567 | 0.514 | 0.373 | 1.14 | 1.2 | 1.2 | 1.14
7 | NCI-H2023 | 0.219 | 0.219 | 0.218 | 0.228 | 0.381 | 0.309 | 0.179 | 0.199 | 0.821 | 0.631 | 0.646 | 0.695 | 0.519 | 0.505 | 0.414 | 0.449 | 0.856 | 0.984 | 0.686 | 0.631
8 | NCI-H520 | 0.508 | 0.502 | 0.436 | 0.368 | 0.378 | 0.432 | 0.412 | 0.31 | 0.738 | 0.652 | 0.6 | 0.543 | 0.388 | 0.398 | 0.286 | 0.265 | 0.68 | 0.715 | 0.661 | 0.688
9 | RERF-LC-KJ | 0.716 | 0.759 | 0.737 | 0.845 | 0.51 | 0.522 | 0.401 | 0.424 | 0.754 | 0.737 | 0.75 | 0.619 | 1.03 | 0.946 | 0.928 | 0.941 | 0.915 | 0.866 | 0.939 | 0.936
10 | A-427 | 0.529 | 0.589 | 0.571 | 0.666 | 0.221 | – | 0.222 | 0.185 | 0.9 | 0.972 | 0.763 | 0.856 | 0.768 | 0.737 | 0.782 | 0.754 | 1.06 | 1.08 | 0.903 | 1.03
11 | NCI-H441 | 0.246 | 0.286 | 0.321 | 0.24 | 0.743 | 0.734 | 0.565 | 0.578 | 0.968 | 0.958 | 0.847 | 0.849 | 0.554 | 0.51 | 0.622 | 0.624 | 0.808 | 0.848 | 0.858 | 0.693
12 | NCI-H1703 | – | – | – | – | – | – | – | – | – | – | – | – | 0.386 | 0.283 | 0.386 | 0.184 | 0.351 | 0.316 | 0.292 | 0.325
13 | NCI-H1792 | 0.566 | 0.504 | 0.532 | 0.598 | – | – | – | – | – | – | – | – | 0.481 | 0.532 | 0.416 | 0.416 | – | – | – | –
14 | Calu-6 | – | – | – | – | – | – | – | – | – | – | – | – | 0.581 | 0.611 | 0.516 | 0.424 | 0.879 | 0.921 | 0.89 | 0.835
15 | SK-LU-1 | 0.577 | 0.557 | 0.559 | 0.481 | 0.346 | 0.352 | 0.273 | 0.226 | 0.797 | 0.763 | 0.765 | 0.724 | 0.411 | 0.6 | 0.431 | 0.402 | 0.799 | 0.869 | 0.747 | 0.621
16 | PC-3 [JPC-3] | 0.923 | 0.894 | 0.847 | 0.865 | 0.845 | 0.904 | 0.802 | 0.896 | 0.667 | 0.989 | 0.808 | 1.01 | 1.15 | 1.35 | 1.08 | 1.24 | 1.05 | 0.942 | 1.02 | 0.959
17 | EMC-BAC-2 | 1 | 0.941 | 0.913 | 0.955 | 0.276 | 0.377 | 0.331 | 0.273 | 0.466 | 0.602 | 0.418 | 0.504 | 0.52 | 0.645 | 0.473 | 0.5 | 0.961 | 0.828 | 0.822 | 0.708
